Experimental data published in patent US20110060013A1, “THIAZOLES AND PYRAZOLES USEFUL AS KINASE INHIBITORS” (VERTEX PHARMACEUTICALS INCORPORATED, priority 2007, published 2011).
pKi: −log10 of the molar value.

Tests used:
Aurora-1 (Aurora B) = Aurora-1 (Aurora B) (Homo sapiens, UniProt Q96GD4); test: Aurora-1 (Aurora B) inhibition assay (radiometric); format: biochemical; settings: 800 μM [γ-33P]-ATP, Kemptide, 25° C., 3 hours
Protocol: An assay buffer solution was prepared which consisted of 25 mM HEPES (pH 7.5), 10 mM MgCl2, 0.1% BSA and 10% glycerol. A 22 nM Aurora-B solution, also containing 1.7 mM DTT and 1.5 mM Kemptide (LRRASLG), was prepared in assay buffer. To 22 μL of the Aurora-B solution, in a 96-well plate, was added 2 μl of a compound stock solution in DMSO and the mixture allowed to equilibrate for 10 minutes at 25° C. The enzyme reaction was initiated by the addition of 16 μl stock [γ-^33P]-ATP solution (˜20 nCi/μL) prepared in assay buffer, to a final assay concentration of 800 μM. The reaction was stopped after 3 hours by the addition of 16 μL 500 mM phosphoric acid and the levels of ^33P incorporation into the peptide substrate were determined by the following method.
A phosphocellulose 96-well plate (Millipore, Cat no. MAPHNOB50) was pre-treated with 100 μL of a 100 mM phosphoric acid prior to the addition of the enzyme reaction mixture (40 μL). […] Levels of non-enzyme catalyzed background radioactivity were determined by adding 16 μL of the 500 mM phosphoric acid to control wells, containing all assay components (which acts to denature the enzyme), prior to the addition of the [γ-^33P]-ATP solution. Levels of enzyme catalyzed ^33P incorporation were calculated by subtracting mean background counts from those measured at each inhibitor concentration. […]

Aurora-2 (Aurora A) = molecular target: T1, Aurora-2 (Aurora A) (Homo sapiens, UniProt O14965); test: Aurora-2 (Aurora A) inhibition, coupled enzyme assay; format: biochemical; settings: 400 μM ATP, 570 μM Kemptide, 40 nM Aurora-2, 30° C.
T1 sequence (O14965 1-403): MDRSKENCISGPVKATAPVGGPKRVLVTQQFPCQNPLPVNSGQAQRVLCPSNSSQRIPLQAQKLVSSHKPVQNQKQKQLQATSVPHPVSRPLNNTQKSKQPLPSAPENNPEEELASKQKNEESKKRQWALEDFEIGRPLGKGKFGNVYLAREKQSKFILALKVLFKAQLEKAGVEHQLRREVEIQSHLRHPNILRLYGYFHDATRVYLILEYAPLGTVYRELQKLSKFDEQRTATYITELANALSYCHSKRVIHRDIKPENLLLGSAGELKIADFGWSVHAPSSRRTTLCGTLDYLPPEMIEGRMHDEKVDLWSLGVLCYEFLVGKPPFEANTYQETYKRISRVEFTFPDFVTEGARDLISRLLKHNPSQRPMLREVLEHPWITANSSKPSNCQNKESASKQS
Protocol: Compounds were screened for their ability to inhibit Aurora-2 using a standard coupled enzyme assay (Fox et al., Protein Sci., (1998) 7, 2249). Assays were carried out in a mixture of 100 mM Hepes (pH7.5), 10 mM MgCl2, 1 mM DTT, 25 mM NaCl, 2.5 mM phosphoenolpyruvate, 300 μM NADH, 30 μg/ml pyruvate kinase and 10 μg/ml lactate dehydrogenase. Final substrate concentrations in the assay were 400 μM ATP (Sigma Chemicals) and 570 μM peptide (Kemptide, American Peptide, Sunnyvale, Calif.). Assays were carried out at 30° C. and in the presence of 40 nM Aurora-2.
An assay stock buffer solution was prepared containing all of the reagents listed above, with the exception of Aurora-2 and the test compound of interest. 55 μl of the stock solution was placed in a 96 well plate followed by addition of 2 μl of DMSO stock containing serial dilutions of the test compound (typically starting from a final concentration of 7.5 μM). The plate was preincubated for 10 minutes at 30° C. and the reaction initiated by addition of 10 μl of Aurora-2. Initial reaction rates were determined with a Molecular Devices SpectraMax Plus plate reader over a 10 minute time course. IC50 and Ki data were calculated from non-linear regression analysis using the Prism software package (GraphPad Prism version 3.0cx for Macintosh, GraphPad Software, San Diego Calif., USA).

Chain of Aurora-1 (Aurora B) (Q96GD4 whole entry): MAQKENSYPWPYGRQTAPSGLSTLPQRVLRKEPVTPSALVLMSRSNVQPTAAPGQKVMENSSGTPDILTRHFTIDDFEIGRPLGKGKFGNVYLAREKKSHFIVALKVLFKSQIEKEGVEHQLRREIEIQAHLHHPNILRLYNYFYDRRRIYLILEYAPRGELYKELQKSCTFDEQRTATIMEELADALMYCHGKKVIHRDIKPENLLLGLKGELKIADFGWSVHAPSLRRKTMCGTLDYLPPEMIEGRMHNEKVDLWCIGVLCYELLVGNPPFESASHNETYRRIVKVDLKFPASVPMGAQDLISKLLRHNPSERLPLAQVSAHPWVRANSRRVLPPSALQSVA

| SMILES | pKi (Aurora-1 (Aurora B)) | pKi (Aurora-2 (Aurora A)) |
| --- | --- | --- |
| Cc1cc(Nc2cc(N3CC[C@H](F)C3)cc(Sc3ccc(NC(=O)C4CC4)cc3)n2)[nH]n1 [Compound 2, (S)-N-(4-(4-(3-Fluoropyrrolidin-1-yl)-6-(3-methyl-1H-pyrazol-5-ylamino)pyridin-2-ylthio)phenyl)cyclopropanecarboxamide] | > 6.00 | > 7.00 |
| Cc1cnc(Nc2cc(N3CC[C@H](F)C3)cc(Sc3ccc(NC(=O)C4CC4)cc3)n2)s1 [Compound 1, (S)-N-(4-(4-(3-Fluoropyrrolidin-1-yl)-6-(5-methylthiazol-2-ylamino)pyridin-2-ylthio)phenyl)cyclopropanecarboxamide] | > 6.00 | > 7.00 |
